Data reported in patent US10183954B2, “Oxathiolane carboxylic acids and derivatives for the treatment and prophylaxis of virus infection” (Hoffmann-La Roche Inc., priority 2016, dated 2019).

Each compound was assayed against human TLR7 (Homo sapiens (Human), UniProt Q9NYK1) (assay: HEK293-Blue-hTLR-7 cells assay (SEAP reporter)). Details: 20 hours incubation.
Assay type: cell-based
Description: HEK293-Blue-hTLR-7 Cells Assay: A stable HEK293-Blue-hTLR-7 cell line was purchased from InvivoGen (Cat.#: hkb-htlr7, San Diego, Calif., USA). These cells were designed for studying the stimulation of human TLR7 by monitoring the activation of NF-κB. A SEAP (secreted embryonic alkaline phosphatase) reporter gene was placed under the control of the […] minimal promoter fused to five NF-κB and AP-1-binding sites. The SEAP was induced by activating NF-κB and AP-1 via stimulating HEK-Blue hTLR7 cells with TLR7 ligands. Therefore the reporter expression was regulated by the NF-κB promoter upon stimulation of human TLR7. The cell culture supernatant SEAP reporter activity was determined using QUANTI-Blue™ kit (Cat.#: rep-qb 1, Invivogen, San Diego, Ca, USA) at a wavelength of 640 nm, a detection medium that turns purple to blue in the presence of alkaline phosphatase. HEK293-Blue-hTLR7 cells were incubated at a density of 250,000˜450,000 cells/mL in a volume of 180 μL in a 96-well plate in Dulbecco's Modified Eagle's medium (DMEM) containing 4.5 g/l glucose, 50 U/ml penicillin, […], […], 2 mM L-glutamine, 10% (v/v) heat-inactivated fetal bovine serum for 24 h. Then the HEK293-Blue-hTLR-7 cells were incubated with addition of 20 μL test compound in a serial dilution in the presence of final DMSO at 1% and perform incubation under 37° C. in a CO2 incubator for 20 hours. Then 20 μL of the supernatant from each well was incubated with 180 μL Quanti-blue substrate solution at 37° C. for 1-3 hours and the absorbance was read at 620˜655 nm using a spectrophotometer.

human TLR7, sequence (Q9NYK1 27-1049): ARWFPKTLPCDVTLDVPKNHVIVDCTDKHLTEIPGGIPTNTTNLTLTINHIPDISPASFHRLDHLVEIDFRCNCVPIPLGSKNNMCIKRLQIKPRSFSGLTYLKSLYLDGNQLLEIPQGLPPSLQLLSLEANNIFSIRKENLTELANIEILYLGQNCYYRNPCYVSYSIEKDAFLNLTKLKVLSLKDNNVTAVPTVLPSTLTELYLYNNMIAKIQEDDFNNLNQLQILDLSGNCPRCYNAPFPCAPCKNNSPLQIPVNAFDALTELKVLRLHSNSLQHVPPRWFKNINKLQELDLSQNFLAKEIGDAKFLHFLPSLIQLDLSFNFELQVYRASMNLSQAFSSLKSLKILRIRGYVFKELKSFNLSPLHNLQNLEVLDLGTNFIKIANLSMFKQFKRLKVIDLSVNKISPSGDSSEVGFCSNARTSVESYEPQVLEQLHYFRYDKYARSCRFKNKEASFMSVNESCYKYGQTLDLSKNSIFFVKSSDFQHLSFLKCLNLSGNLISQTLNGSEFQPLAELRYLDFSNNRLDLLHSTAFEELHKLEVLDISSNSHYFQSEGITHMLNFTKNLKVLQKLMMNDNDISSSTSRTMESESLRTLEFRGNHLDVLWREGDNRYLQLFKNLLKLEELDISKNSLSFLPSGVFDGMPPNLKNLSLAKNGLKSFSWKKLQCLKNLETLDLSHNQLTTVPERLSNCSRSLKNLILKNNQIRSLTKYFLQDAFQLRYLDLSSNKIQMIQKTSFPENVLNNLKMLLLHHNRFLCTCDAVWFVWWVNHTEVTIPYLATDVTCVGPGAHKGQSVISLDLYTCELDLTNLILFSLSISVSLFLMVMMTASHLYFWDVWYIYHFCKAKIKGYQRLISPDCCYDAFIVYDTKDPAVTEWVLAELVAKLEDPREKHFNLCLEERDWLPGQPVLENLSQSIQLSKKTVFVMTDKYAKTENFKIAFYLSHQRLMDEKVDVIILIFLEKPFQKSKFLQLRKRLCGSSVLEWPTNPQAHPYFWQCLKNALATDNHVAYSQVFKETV

EC50 [µM]	SMILES
13	CC[C@H](O)[C@H]1O[C@@H](n2c(=O)sc3c(=O)[nH]c(N)nc32)[C@H](CC(=O)OC)S1 [Example 4-P1, methyl 2-[(2S,4S,5R)-5-(5-amino-2,7-dioxo-6H-thiazolo[4,5-d]pyrimidin-3-yl)-2-[(1S)-1-hydroxypropyl]-1,3-oxathiolan-4-yl]acetate]
469	CN(C)C(=O)CC1SC(CO)OC1n1c(=O)sc2c(=O)[nH]c(N)nc21 (stereo not drawn) [Example 3-P1, 2-[(trans-2,4-trans-4,5)-5-(5-amino-2,7-dioxo-6H-thiazolo[4,5-d]pyrimidin-3-yl)-2-(hydroxymethyl)-1,3-oxathiolan-4-yl]-N,N-dimethyl-acetamide]
23	CC[C@H](O)[C@H]1O[C@@H](n2c(=O)sc3c(=O)[nH]c(N)nc32)[C@H](CC(=O)NC)S1 [Example 6-P1, 2-[(2S,4S,5R)-5-(5-amino-2,7-dioxo-6H-thiazolo[4,5-d]pyrimidin-3-yl)-2-[(1S)-1-hydroxypropyl]-1,3-oxathiolan-4-yl]-N-methyl-acetamide]
144	Nc1nc2c(sc(=O)n2[C@@H]2O[C@H](CO)S[C@H]2CC(=O)O)c(=O)[nH]1 (relative stereo) [Example 2-P1, 2-[(trans-2,4-trans-4,5)-5-(5-amino-2,7-dioxo-6H-thiazolo[4,5-d]pyrimidin-3-yl)-2-(hydroxymethyl)-1,3-oxathiolan-4-yl]acetic acid]
28	CC[C@H](O)[C@H]1O[C@@H](n2c(=O)sc3c(=O)[nH]c(N)nc32)[C@H](CC(=O)N(C)C)S1 [Example 7-P1, 2-[(2S,4S,5R)-5-(5-amino-2,7-dioxo-6H-thiazolo[4,5-d]pyrimidin-3-yl)-2-[(1S)-1-hydroxypropyl]-1,3-oxathiolan-4-yl]-N,N-dimethyl-acetamide]
22	COC(=O)CC1SC([C@H](C)O)OC1n1c(=O)sc2c(=O)[nH]c(N)nc21 (single isomer, unassigned) [Example 9-P3]
2.5	CC[C@H](O)[C@H]1O[C@@H](n2c(=O)sc3c(=O)[nH]c(N)nc32)[C@H](CC(=O)N2CCOCC2)S1 [Example 8-P1, 5-amino-3-[(2S,4S,5R)-2-[(1S)-1-hydroxypropyl]-4-(2-morpholino-2-oxo-ethyl)-1,3-oxathiolan-5-yl]-6H-thiazolo[4,5-d]pyrimidine-2,7-dione]
317	COC(=O)CC1SC(CO)OC1n1c(=O)sc2c(=O)[nH]c(N)nc21 (stereo not drawn) [Example 1-P1, methyl 2-[(trans-2,4-trans-4,5)-5-(5-amino-2,7-dioxo-6H-thiazolo[4,5-d]pyrimidin-3-yl)-2-hydroxymethyl)-1,3-oxathiolan-4-yl]acetate]
42	C=CC[C@H](O)C1OC(n2c(=O)sc3c(=O)[nH]c(N)nc32)C(CC(=O)O)S1 (single isomer, unassigned) [Example 12-P3]
23	C[C@H](O)C1OC(n2c(=O)sc3c(=O)[nH]c(N)nc32)C(CC(=O)O)S1 (single isomer, unassigned) [Example 10-P3]
24	CC[C@H](O)[C@H]1O[C@@H](n2c(=O)sc3c(=O)[nH]c(N)nc32)[C@H](CC(=O)O)S1 [Example 5-P1, 2-[(2S,4S,5R)-5-(5-amino-2,7-dioxo-6H-thiazolo[4,5-d]pyrimidin-3-yl)-2-[(1S)-1-hydroxypropyl]-1,3-oxathiolan-4-yl]acetic acid]
321	CCCC[C@H](O)C1OC(n2c(=O)sc3c(=O)[nH]c(N)nc32)C(CC(=O)O)S1 (single isomer, unassigned) [Example 11-P3]
15	COC(=O)CC1SC([C@@H](O)C2CC2)OC1n1c(=O)sc2c(=O)[nH]c(N)nc21 (single isomer, unassigned) [Example 13-P3]
10	Nc1nc2c(sc(=O)n2C2OC([C@@H](O)C3CC3)SC2CC(=O)O)c(=O)[nH]1 (single isomer, unassigned) [Example 14-P3]

The compounds below were run on human hepatocytes (assay: Metabolic conversion of prodrugs in human hepatocytes). Details: not given.
Assay type: in vitro ADME
Description: Metabolism of Prodrugs: Compounds of Formula (II) A study was undertaken to evaluate the metabolic conversion of prodrugs, compounds of formula (II) or (IIa), to compounds of formula (I) or (Ia) of the present invention. The prodrugs, compounds of formula (II) or (IIa), can be metabolized to the active compound of formula (I) or (Ia) and other compounds of the invention in the body if they are served as prodrugs. Hepatocytes are often used to assess the degree of metabolic conversion of prodrugs in the body of animal or human. A study was undertaken to evaluate the metabolic conversion of prodrug Example 15, to the corresponding active form, Example 5-P1, in the presence of human hepatocytes. The formation of active form, Example 5-P1, was monitored in the study. For comparison, the metabolic conversion of famciclovir to penciclovir was also assessed. Cryopreserved hepatocytes plating medium (Cat.#: PY-HMD-03) was purchased from RILD Research Institute for Liver Diseases (Shanghai) Co. Ltd. Cryopreserved human hepatocyte (Cat.#: X008005, Lot#:VRR) was purchased from BioreclamationIVT (Baltimore, Md.). The stock hepatocyte suspension was prepared from cryopreserved hepatocytes in plating medium at the concentration of 1.8×10^6 cells/mL. […] The compounds were quantified on an API5500 […] instrument in the ESI-Positive MRM mode.

SMILES	Metabolic conversion of prodrug to active metabolite
CC(=O)OCC(CCn1cnc2cnc(N)nc21)COC(C)=O [Famciclovir, famciclovir, reference compound]	metabolized to yield the corresponding active metabolites
CC[C@H](OC(=O)c1ccccc1)[C@H]1O[C@@H](n2c(=O)sc3cnc(N)nc32)[C@H](CC(=O)OC)S1 [Example 15, [(1S)-1-[(2S,4S,5R)-5-(5-amino-2-oxo-thiazolo[4,5-d]pyrimidin-3-yl)-4-(2-methoxy-2-oxo-ethyl)-1,3-oxathiolan-2-yl]propyl]benzoate]	metabolized to yield the corresponding active metabolites
